Measurements from patent publication EP4725956A1, “MODIFIED POLYPEPTIDE AND USE THEREOF IN FIELD OF ANALGESIA” (Nanjing Anji Biotechnology Co., Ltd., priority 2023, dated 2024).
Positions of bridges follow the written chain, without caps; N, C: chain ends. Non-standard residues stand in square brackets, D forms with d. Residues, ends and D or L forms follow the SMILES beside them. Bip = N[C@@H](Cc1ccc(-c2ccccc2)cc1)C(=O)O; Hyp = O=C(O)[C@@H]1C[C@@H](O)CN1; Nle = CCCC[C@H](N)C(=O)O; Orn = NCCC[C@H](N)C(=O)O; Aib = CC(C)(N)C(=O)O

Legend:
[1] = tested on: rat paclitaxel-induced chronic chemotherapy pain model; experiment: Rat paclitaxel chemotherapy pain model, same dose (Example 5); assay type: in vivo; details: for ranking among the five candidate modified peptides / analgesic activity (mechanical pain threshold) / analgesic activity compared with the model group (mechanical pain threshold): 1 mg/kg s.c.; for analgesic activity (mechanical pain threshold): day 12, 7 h after dosing; for analgesic efficacy compared with the positive control pregabalin: peptide 1 mg/kg s.c. vs pregabalin 30 mg/kg oral gavage, overall; for analgesic activity compared with the model group (mechanical pain threshold): four rounds of treatment
Description: Male SPF (Specific Pathogen Free) SD rats weighing 180-200 g (Shanghai Institute of Planned Parenthood Research, Experimental Animal Department) were used. On the day of model induction, rats were weighed, and baseline mechanical pain thresholds were measured. Animals with large differences in body weight or pain threshold were excluded, and the remaining rats were subjected to the experimental protocol. Paclitaxel powder was dissolved in olive oil to 1 mg/mL. Each rat received an intraperitoneal injection of 2 mg/kg per dose. Four injections were administered on days 1, 3, 5, and 7. Rats in the negative control or vehicle control group received injections of the solvent used to dissolve paclitaxel. […] The blank group in Table 4 represents rats without pain modeling, and the model group represents rats with pain modeling but no drug treatment. On days 1, 3, 5, and 12, drugs were administered at fixed times. On days 1, 3, and 5, mechanical pain thresholds of the right hind paw at the corresponding time were measured at 1 h, 2.5 h, 4 h, and 5.5 h after dosing using a blunt probe. On day 12, mechanical pain thresholds were measured at 4 h and 7 h after dosing. […] AJ003-36 and AJ003-40 were thus identified as candidate molecules for further study. Paclitaxel is a widely used small-molecule chemotherapy drug that, while effective against tumors, can induce neuropathic pain in many cancer patients due to neurotoxicity. The chronic chemotherapy pain model induced in male SD rats via multiple low-dose intraperitoneal injections of paclitaxel simulates clinical chemotherapy-induced neuropathic pain. Using this model, the analgesic effects of five modified peptides, the parent peptide AJ003, and the positive control pregabalin were evaluated. […] Table 4 Dosing Scheme for Screening Analgesic Activity of Selected Modified Peptides at the Same Dose in the Paclitaxel Chemotherapy Pain Model

[2] = tested on: rat paclitaxel-induced chronic chemotherapy pain model; experiment: Rat paclitaxel chemotherapy pain model, different doses (Example 6); assay type: in vivo; details: for analgesic activity compared with the positive control pregabalin: high dose 1.5 mg/kg s.c. vs pregabalin 30 mg/kg oral gavage; for analgesic effect compared with the model group (mechanical pain threshold): high dose 1.5 mg/kg s.c., 8 h after dosing; for analgesic activity compared with the parent peptide AJ003: low dose 0.5 mg/kg s.c. vs AJ003 1 mg/kg s.c.; for analgesic activity compared with the model group (mechanical pain threshold): 1 mg/kg s.c., five rounds of treatment
Description: Male SPF (Specific Pathogen Free) SD rats weighing 180-200 g (Shanghai Institute of Planned Parenthood Research, Experimental Animal Department) were purchased and allowed to acclimate for approximately one week. On the day of model induction, rats were weighed, and baseline mechanical pain thresholds were measured. Animals with large differences in body weight or pain threshold were excluded, and the remaining rats were subjected to the experimental protocol. Paclitaxel powder was dissolved in olive oil to 1 mg/mL. Each rat received an intraperitoneal injection of 2 mg/kg per dose. Four injections were administered on days 1, 3, 5, and 7. Rats in the negative control or vehicle control group received injections of the solvent used to dissolve paclitaxel. […] Starting from day 15 after model induction, drugs were administered daily for consecutive days. On days 1, 4, 7, 12, and 14 of treatment, mechanical pain thresholds of the right hind paw at the corresponding time were measured at 2 h, 4 h, 6 h, and 8 h after dosing using a blunt probe. […]. […] Table 5 Dosing Scheme for Screening Analgesic Activity of Selected Modified Peptides at Different Doses in the Paclitaxel Chemotherapy Pain Model

α7 nAChR = α7 nAChR (Homo sapiens, UniProt P36544); experiment: BLI (biolayer interferometry) affinity of peptides to α7 nAChR; assay type: binding; design: inferred from the 'similar' procedure on NTA sensors; details: NTA sensor, α7 nAChR 20 µg/mL, peptide 1.372-1000 nM in PBS
Procedure, shortened: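 Target protein immobilised on NTA biosensors from PBS at 5 µg/mL (α9) or 20 µg/mL (α7). Peptides run in PBS as threefold series from 1000 nM to 1.372 nM with a PBS blank, 5-minute association and 5-minute dissociation; KD from fitted ka and kd.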

SMILES	ranking among the five candidate modified peptides [1]	analgesic activity (mechanical pain threshold) [1]	analgesic efficacy compared with the positive control pregabalin [1]	analgesic activity compared with the positive control pregabalin [2]	analgesic effect compared with the model group (mechanical pain threshold) [2]	analgesic activity compared with the parent peptide AJ003 [2]	Kd (α7 nAChR) [µM]	analgesic activity compared with the model group (mechanical pain threshold) ([1]; beyond 4 h after dosing)	analgesic activity compared with the model group (mechanical pain threshold) ([1]; within 4 h after dosing)	analgesic activity compared with the model group (mechanical pain threshold) ([2]; beyond 4 h after dosing)	analgesic activity compared with the model group (mechanical pain threshold) ([2]; within 4 h after dosing)
CCCC[C@H](NC(=O)[C@@H](NC(=O)[C@H]1CSSC[C@H](NC(=O)[C@H](CO)NC(=O)CN)C(=O)N[C@@H](CO)C(=O)N[C@H]([C@H](C)O)C(=O)N2C[C@H](O)C[C@H]2C(=O)N2C[C@H](O)C[C@H]2C(=O)N[C@@H](CO)C(=O)N1)C(C)C)C(=O)N[C@@H](Cc1c[nH]c2ccccc12)C(=O)N[C@@H](CCCN)C(N)=O [AJ003-40, GSCS-(D-Thr)-Hyp-Hyp-S-(D-Cys)-V-Nle-W-Orn-NH2 (3,9 disulfide bond)] (H-GSCS[dT][Hyp][Hyp]S[dC]V[Nle]W[Orn]-NH2; disulfide 3-9)	top three analgesic candidates	prolonged analgesic activity lasting up to 7 h	comparable in analgesic efficacy to pregabalin	slightly superior to the positive control pregabalin	remained significant	comparable to that of AJ003 at 1 mg/kg	0.0465				
CCCC[C@H](NC(=O)[C@@H](NC(=O)[C@H]1CSSC[C@H](NC(=O)[C@H](CO)NC(=O)CN)C(=O)N[C@@H](CO)C(=O)N[C@H]([C@H](C)O)C(=O)N2C[C@H](O)C[C@H]2C(=O)N2C[C@H](O)C[C@H]2C(=O)NC(C)(C)C(=O)N1)C(C)C)C(=O)N[C@@H](Cc1ccc(-c2ccccc2)cc1)C(=O)N[C@@H](CCCN)C(N)=O [AJ003-36, GSCS-(D-Thr)-Hyp-Hyp-Aib-(D-Cys)-V-Nle-Bip-Orn-NH2 (3,9 disulfide bond)] (H-GSCS[dT][Hyp][Hyp][Aib][dC]V[Nle][Bip][Orn]-NH2; disulfide 3-9)	top three analgesic candidates	prolonged analgesic activity lasting up to 7 h	comparable in analgesic efficacy to pregabalin	slightly superior to the positive control pregabalin	remained significant	comparable to that of AJ003 at 1 mg/kg	0.0408				
CC(C)C[C@H](NC(=O)[C@@H](NC(=O)[C@H]1CSSC[C@H](NC(=O)[C@H](CO)NC(=O)CN)C(=O)N[C@@H](CO)C(=O)N[C@@H]([C@@H](C)O)C(=O)N2CCC[C@H]2C(=O)N2CCC[C@H]2C(=O)N[C@@H](CO)C(=O)N1)C(C)C)C(=O)N[C@@H](Cc1ccc(O)cc1)C(=O)N[C@@H](CO)C(=O)O [AJ003, GSCSTPPS-(D-Cys)-VLYS (disulfide bond between positions 3 and 9)] (H-GSCSTPPS[dC]VLYS-OH; disulfide 3-9)							0.223	no significant analgesic effect	significant analgesic activity	no significant effect	significant analgesic activity
